One assay relates to NCI-H460. The assay can be described thus: Cytotoxicity against human NCI-H460 cells after 48 hrs by SRB assay. In kind it is functional.
The subject of the next assay is SK-OV-3. The assay can be described thus: Cytotoxicity against human SKOV3 cells after 48 hrs by SRB assay. In kind it is functional. (The SRB assay estimates cell density from bound dye.)
A further assay deals with DU-145. Nature of the assay: Cytotoxicity against human DU145 cells after 48 hrs by SRB assay. The format is functional.
A short description of assay [1]: Inhibition of calf brain tubulin polymerization after 15 mins by UV-visible spectrophotometry. More on the design: species or system Bos taurus.

Turning to `COc1ccc(/C=C\c2cc(OC)c(OC)c(OC)c2)cc1O` [COMBRETASTATIN A4], the 50% growth inhibitory concentration (GI50) – broadly, the concentration at which growth is held to half of that of the control – worked out at 2.23 nM with NCI-H460 (Homo sapiens, NCI-H460, 48 h); 4.55 nM in the assay with SK-OV-3 (Homo sapiens, SK-OV-3, 48 h); 3.27 nM with DU-145 (Homo sapiens, DU-145, 48 h).

Regarding `COc1cc2c(c(OC)c1O)CCCC=C2c1cc(OC)c(OC)c(OC)c1`, the GI50 in the assay on NCI-H460 (Homo sapiens, NCI-H460, 48 h) was found to be 18000 nM; with SK-OV-3 (Homo sapiens, SK-OV-3, 48 h) it was 7130 nM; with DU-145 (Homo sapiens, DU-145, 48 h), 15700 nM. In addition, the IC50 (as a rule, the midpoint of a concentration-inhibition curve) in assay [1] was above 40000 nM.

Turning to `COc1cc(C2=CCCCc3c2cc(OC)c(OC)c3O)cc(OC)c1OC`, the GI50 was 25900 nM in the assay on NCI-H460 (Homo sapiens, NCI-H460, 48 h); 18100 nM with SK-OV-3 (Homo sapiens, SK-OV-3, 48 h); 38400 nM with DU-145 (Homo sapiens, DU-145, 48 h). This compound also showed an IC50 in assay [1] above 40000 nM.

As to `COc1ccc2c(c1O)CCCC=C2c1cc(OC)c(OC)c(OC)c1`, the GI50 in the assay with NCI-H460 (Homo sapiens, NCI-H460, 48 h) was determined as 0.0418 nM; with SK-OV-3 (Homo sapiens, SK-OV-3, 48 h) it was 0.0543 nM; in the assay on DU-145 (Homo sapiens, DU-145, 48 h) it was 0.0249 nM. This compound also yielded a half-inhibitory concentration (IC50) in assay [1] of 1400 nM.

`COc1cc(C2=CCCCc3c2ccc(OC)c3OP(=O)(O)O)cc(OC)c1OC`: the GI50 is 7.96 nM with NCI-H460 (Homo sapiens, NCI-H460, 48 h) and 9.51 nM with DU-145 (Homo sapiens, DU-145, 48 h). The compound further came in with an IC50 in assay [1] above 40000 nM.

With `COc1ccc2c(c1N)CCCC=C2c1cc(OC)c(OC)c(OC)c1`, the GI50 came to 2.8 nM in the assay on NCI-H460 (Homo sapiens, NCI-H460, 48 h) and 0.102 nM in the assay with SK-OV-3 (Homo sapiens, SK-OV-3, 48 h). In assay [1], this compound gave an IC50 of 1200 nM.

As for `COc1cc(C2=CCCCc3ccccc32)cc(OC)c1OC`, the 50% growth inhibitory concentration (GI50) in the assay on NCI-H460 (Homo sapiens, NCI-H460, 48 h) was determined as 32500 nM; in the assay on SK-OV-3 (Homo sapiens, SK-OV-3, 48 h), 19100 nM; with DU-145 (Homo sapiens, DU-145, 48 h), 22000 nM. The compound also came in with a concentration for half-maximal inhibition (IC50) in assay [1] above 40000 nM.

With `COc1ccc(C2=CCCCc3c2ccc(OC)c3OC)cc1OC`, the GI50 was above 136000 nM in the assay with NCI-H460 (Homo sapiens, NCI-H460, 48 h); above 89500 nM with SK-OV-3 (Homo sapiens, SK-OV-3, 48 h); 42500 nM in the assay on DU-145 (Homo sapiens, DU-145, 48 h). The compound also returned an IC50 in assay [1] above 40000 nM.

For the compound `COc1ccc2c(c1Cl)CCCC=C2c1cc(OC)c(OC)c(OC)c1`, the GI50 in the assay with NCI-H460 (Homo sapiens, NCI-H460, 48 h) came out at 71.3 nM; with SK-OV-3 (Homo sapiens, SK-OV-3, 48 h), 44.4 nM; with DU-145 (Homo sapiens, DU-145, 48 h), 152 nM. In addition, inhibition in assay [1] was half-maximal at 930 nM (IC50).

As to `COc1ccc2c(c1NC(=O)[C@@H](N)CO)CCCC=C2c1cc(OC)c(OC)c(OC)c1` [listing 1 of 2 here], the GI50 with NCI-H460 (Homo sapiens, NCI-H460, 48 h) was found to be 53800 nM; in the assay with SK-OV-3 (Homo sapiens, SK-OV-3, 48 h) it was 35000 nM; in the assay on DU-145 (Homo sapiens, DU-145, 48 h), 69400 nM.

Consider `COc1ccc(/C=C\c2cc(OC)c(OC)c(OC)c2)cc1OP(=O)(O)O` [FOSBRETABULIN DISODIUM], for which the 50% growth inhibitory concentration (GI50) turned out to be 1.94 nM in the assay on NCI-H460 (Homo sapiens, NCI-H460, 48 h); 1.19 nM with SK-OV-3 (Homo sapiens, SK-OV-3, 48 h); 3.23 nM in the assay with DU-145 (Homo sapiens, DU-145, 48 h). Also, the 50% inhibitory concentration (IC50) in assay [1] was above 40000 nM.

With `COc1ccc(C2=CCCCc3c2ccc(OC)c3O)cc1OC`, the GI50 in the assay with NCI-H460 (Homo sapiens, NCI-H460, 48 h) was 262 nM; in the assay on SK-OV-3 (Homo sapiens, SK-OV-3, 48 h), 33.4 nM; with DU-145 (Homo sapiens, DU-145, 48 h), 109 nM. The compound further yielded an IC50 in assay [1] of 740 nM.

As to `COc1ccc2c(c1F)CCCC=C2c1cc(OC)c(OC)c(OC)c1`, the 50% growth inhibitory concentration (GI50) with NCI-H460 (Homo sapiens, NCI-H460, 48 h) is 5.47 nM; with SK-OV-3 (Homo sapiens, SK-OV-3, 48 h), 7.51 nM; in the assay on DU-145 (Homo sapiens, DU-145, 48 h), 18.9 nM. For the same compound, the 50% inhibitory concentration (IC50) in assay [1] is 890 nM.

For the compound `COc1ccc2c(c1NC(=O)[C@@H](N)CO)CCCC=C2c1cc(OC)c(OC)c(OC)c1` [listing 2 of 2 here], the 50% growth inhibitory concentration (GI50) came out at 39000 nM in the assay on NCI-H460, 36800 nM in the assay with SK-OV-3 and 70500 nM with DU-145.
